Laboratory results: article PMC10897929 (2024)

Legend:
[1] = test system: CSS.3_cut3 (DNA, aptamer) GGACGACGCCAGAAGTTTACGAGGATATGGTAACATAGTCGT; experiment: BLI, steady state fit; conditions: Na+ 123 mM (NaCl), K+ 3.5 mM, Ca2+ 2.5 mM, Mg2+ 0.7 mM; sISF, 10 mM HEPES, 30 °C
[2] = test system: CSS.3_cut5 (DNA, aptamer) GGACGACGCCAGAAGTTTACGAGGATATGGTAACATAGTC; experiment: BLI, steady state fit; conditions: Na+ 123 mM (NaCl), K+ 3.5 mM, Ca2+ 2.5 mM, Mg2+ 0.7 mM; sISF, 10 mM HEPES, 30 °C

KD [1]: 0.99 µM | KD [2]: 4.2 µM
Compound: C[C@]12CCC(=O)C=C1CC[C@@H]1[C@@H]2[C@@H](O)C[C@@]2(C)[C@H]1CC[C@]2(O)C(=O)CO
